Results: ChEMBL document CHEMBL3769303, “Discovery of membrane active benzimidazole quinolones-based topoisomerase inhibitors as potential DNA-binding antimicrobial agents” (Eur J Med Chem, 2016)
≈ marks a conversion by molar mass, not a printed value. Calls of active or inactive are those of the source. No cut-off for these calls is given here.

Key:
Shigella dysenteriae = test: Antibacterial activity against Shigella dysenteriae by micro broth dilution method; type: functional
Staphylococcus aureus [1] = test: Antibacterial activity against methicillin-resistant Staphylococcus aureus N315 by micro broth dilution method; type: functional
Staphylococcus aureus [2] = test: Antibacterial activity against Staphylococcus aureus ATCC 25923 by micro broth dilution method; type: functional
Micrococcus luteus = test: Antibacterial activity against Micrococcus luteus ATCC 4698 by micro broth dilution method; type: functional; settings: NCTC 2665
Bacillus spizizenii = test: Antibacterial activity against Bacillus subtilis ATCC 6633 by micro broth dilution method; type: functional
Escherichia coli [3] = test: Antibacterial activity against Escherichia coli DH52 by micro broth dilution method; type: functional
Escherichia coli [4] = test: Antibacterial activity against Escherichia coli JM109 by micro broth dilution method; type: functional
Pseudomonas aeruginosa = test: Antibacterial activity against Pseudomonas aeruginosa ATCC 27853 by micro broth dilution method; type: functional
[5] = Antibacterial activity against Bacillus proteus ATCC 13315 by micro broth dilution method; type: functional
Salmonella enterica = test: Antibacterial activity against Salmonella enterica ATCC 14028 by micro broth dilution method; type: functional
Staphylococcus aureus [6] = test: Antibacterial activity against methicillin-resistant Staphylococcus aureus N315 at MIC measured after 6 passages; type: functional, organism-based
Calf thymus DNA = test: Binding affinity to calf thymus DNA by UV-visible spectroscopy; type: nucleic-acid assay; settings: Bos taurus
[7] = Antifungal activity against Candida mycoderma ATCC 9888 after 24 hrs by micro broth dilution method; type: functional; settings: Candida vini
Cyberlindnera jadinii = test: Antifungal activity against Candida utilis ATCC 9950 after 24 hrs by micro broth dilution method; type: functional; settings: Williopsis jadinii, ATCC 9950, 24 h
Aspergillus flavus = test: Antifungal activity against Aspergillus flavus ATCC 204304 after 24 hrs by micro broth dilution method; type: functional; settings: ATCC 204304, 24 h
Saccharomyces cerevisiae = test: Antifungal activity against Saccharomyces cerevisiae ATCC 9763 after 24 hrs by micro broth dilution method; type: functional; settings: ATCC 9763, 24 h
Candida albicans = test: Antifungal activity against Candida albicans ATCC 10231 after 24 hrs by micro broth dilution method; type: functional; settings: ATCC 10231, 24 h

SMILES | MIC (Shigella dysenteriae) | MIC (Staphylococcus aureus [1]) | MIC (Staphylococcus aureus [2]) | MIC (Micrococcus luteus) | MIC (Bacillus spizizenii) | MIC (Escherichia coli [3]) | MIC (Escherichia coli [4]) | MIC (Pseudomonas aeruginosa) | MIC [5] | MIC (Salmonella enterica) | Activity (Staphylococcus aureus [6]) | Activity (Calf thymus DNA) | MIC80 [7] | MIC80 (Cyberlindnera jadinii) | MIC80 (Aspergillus flavus) | MIC80 (Saccharomyces cerevisiae) | MIC80 (Candida albicans)
CCn1cc(C(=O)O)c(=O)c2cc(F)c(N3CCNCC3)cc21 [NORFLOXACIN] | 16 µg/mL (≈ 50.1 µM) | 8 µg/mL (≈ 25.1 µM) | 2 µg/mL (≈ 6.26 µM) | 2 µg/mL (≈ 6.26 µM) | 4 µg/mL (≈ 12.5 µM) | 1 µg/mL (≈ 3.13 µM) | 1 µg/mL (≈ 3.13 µM) | 16 µg/mL (≈ 50.1 µM) | 8 µg/mL (≈ 25.1 µM) | 4 µg/mL (≈ 12.5 µM) | inactive | Active | – | – | – | – | –
CCCCCCCCCCn1c(CN2CCN(c3cc4c(cc3F)c(=O)c(C(=O)O)cn4CC)CC2)nc2ccccc21 | 8 µg/mL (≈ 13.6 µM) | 8 µg/mL (≈ 13.6 µM) | 32 µg/mL (≈ 54.3 µM) | 16 µg/mL (≈ 27.1 µM) | 4 µg/mL (≈ 6.78 µM) | 0.5 µg/mL (≈ 0.848 µM) | 32 µg/mL (≈ 54.3 µM) | 4 µg/mL (≈ 6.78 µM) | 8 µg/mL (≈ 13.6 µM) | 8 µg/mL (≈ 13.6 µM) | – | – | 8 µg/mL (≈ 13.6 µM) | 4 µg/mL (≈ 6.78 µM) | 4 µg/mL (≈ 6.78 µM) | 4 µg/mL (≈ 6.78 µM) | 16 µg/mL (≈ 27.1 µM)
CCCn1c(CN2CCN(c3cc4c(cc3F)c(=O)c(C(=O)O)cn4C3CC3)CC2)nc2ccccc21 | 4 µg/mL (≈ 7.94 µM) | 2 µg/mL (≈ 3.97 µM) | 32 µg/mL (≈ 63.5 µM) | 1 µg/mL (≈ 1.99 µM) | 32 µg/mL (≈ 63.5 µM) | 1 µg/mL (≈ 1.99 µM) | 4 µg/mL (≈ 7.94 µM) | 1 µg/mL (≈ 1.99 µM) | 32 µg/mL (≈ 63.5 µM) | 4 µg/mL (≈ 7.94 µM) | – | – | 0.5 µg/mL (≈ 0.993 µM) | 0.5 µg/mL (≈ 0.993 µM) | 0.5 µg/mL (≈ 0.993 µM) | 0.5 µg/mL (≈ 0.993 µM) | 0.25 µg/mL (≈ 0.496 µM)
CCn1cc(C(=O)OC)c(=O)c2cc(F)c(N3CCN(/C=N\c4nc5ccccc5[nH]4)CC3)cc21 | 64 µg/mL (≈ 134 µM) | 128 µg/mL (≈ 269 µM) | 64 µg/mL (≈ 134 µM) | 32 µg/mL (≈ 67.2 µM) | 4 µg/mL (≈ 8.39 µM) | 32 µg/mL (≈ 67.2 µM) | 64 µg/mL (≈ 134 µM) | 8 µg/mL (≈ 16.8 µM) | 32 µg/mL (≈ 67.2 µM) | 16 µg/mL (≈ 33.6 µM) | – | – | 128 µg/mL (≈ 269 µM) | 64 µg/mL (≈ 134 µM) | 64 µg/mL (≈ 134 µM) | 32 µg/mL (≈ 67.2 µM) | 64 µg/mL (≈ 134 µM)
CCCCCCCCCCCCCCCCCCn1c(CN2CCN(c3cc4c(cc3F)c(=O)c(C(=O)O)cn4CC)CC2)nc2ccccc21 | 256 µg/mL (≈ 365 µM) | 128 µg/mL (≈ 182 µM) | 256 µg/mL (≈ 365 µM) | 128 µg/mL (≈ 182 µM) | 128 µg/mL (≈ 182 µM) | 256 µg/mL (≈ 365 µM) | 256 µg/mL (≈ 365 µM) | 256 µg/mL (≈ 365 µM) | 256 µg/mL (≈ 365 µM) | 256 µg/mL (≈ 365 µM) | – | – | 64 µg/mL (≈ 91.2 µM) | 64 µg/mL (≈ 91.2 µM) | 64 µg/mL (≈ 91.2 µM) | 128 µg/mL (≈ 182 µM) | 128 µg/mL (≈ 182 µM)
